From ChEMBL document CHEMBL3991601, “The target landscape of clinical kinase drugs” (Science, 2017)
Calls of active or inactive are those of the source. For most assays here, no stated cut-off is given here; in the data, actives have a measured Kd and inactives only a lower limit.

What was measured:
[1] = molecular target: T1, AarF domain-containing protein kinase 1 (Homo sapiens, UniProt Q86TW2)
T1 sequence (Q86TW2 whole entry): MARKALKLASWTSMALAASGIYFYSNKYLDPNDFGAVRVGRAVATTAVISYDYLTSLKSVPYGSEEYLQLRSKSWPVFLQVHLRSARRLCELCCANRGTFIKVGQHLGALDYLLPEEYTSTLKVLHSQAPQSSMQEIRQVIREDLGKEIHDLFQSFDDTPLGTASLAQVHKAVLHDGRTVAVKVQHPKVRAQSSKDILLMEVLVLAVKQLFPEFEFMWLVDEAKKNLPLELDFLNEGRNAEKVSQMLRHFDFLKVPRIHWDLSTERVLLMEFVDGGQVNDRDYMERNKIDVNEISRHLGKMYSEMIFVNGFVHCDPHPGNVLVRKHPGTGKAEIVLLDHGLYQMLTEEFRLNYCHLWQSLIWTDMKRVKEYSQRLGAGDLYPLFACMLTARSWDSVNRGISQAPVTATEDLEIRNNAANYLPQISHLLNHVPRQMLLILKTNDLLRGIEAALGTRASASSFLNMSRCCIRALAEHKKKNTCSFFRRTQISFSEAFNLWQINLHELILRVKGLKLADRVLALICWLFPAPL

[2] = molecular target: T2, Beta-adrenergic receptor kinase 1 (Homo sapiens, UniProt P25098)
T2 sequence (P25098 whole entry): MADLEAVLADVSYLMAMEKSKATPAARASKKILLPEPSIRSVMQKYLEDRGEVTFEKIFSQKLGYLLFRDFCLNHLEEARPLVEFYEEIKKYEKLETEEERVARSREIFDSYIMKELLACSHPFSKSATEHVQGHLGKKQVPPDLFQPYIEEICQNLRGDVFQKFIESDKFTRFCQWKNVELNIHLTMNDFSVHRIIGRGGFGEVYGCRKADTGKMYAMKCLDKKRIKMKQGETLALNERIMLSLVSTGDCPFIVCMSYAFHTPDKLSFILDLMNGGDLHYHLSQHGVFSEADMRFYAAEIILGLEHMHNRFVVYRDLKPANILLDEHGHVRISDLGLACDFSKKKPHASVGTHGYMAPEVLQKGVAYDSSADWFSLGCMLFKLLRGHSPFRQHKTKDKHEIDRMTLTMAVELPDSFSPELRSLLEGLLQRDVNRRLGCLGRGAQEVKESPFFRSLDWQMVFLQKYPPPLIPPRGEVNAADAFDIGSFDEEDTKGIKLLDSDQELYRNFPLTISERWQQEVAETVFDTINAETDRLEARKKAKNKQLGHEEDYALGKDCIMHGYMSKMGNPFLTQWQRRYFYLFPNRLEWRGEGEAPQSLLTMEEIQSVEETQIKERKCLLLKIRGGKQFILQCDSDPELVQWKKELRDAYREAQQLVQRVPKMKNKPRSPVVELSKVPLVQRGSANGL

[3] = molecular target: RAC-gamma serine/threonine-protein kinase (Homo sapiens, UniProt Q9Y243)
[4] = molecular target: Inosine-5'-monophosphate dehydrogenase 2 (Homo sapiens, UniProt P12268)
[5] = molecular target: T3, Phosphorylase b kinase gamma catalytic chain, liver/testis isoform (Homo sapiens, UniProt P15735)
T3 sequence (P15735 whole entry): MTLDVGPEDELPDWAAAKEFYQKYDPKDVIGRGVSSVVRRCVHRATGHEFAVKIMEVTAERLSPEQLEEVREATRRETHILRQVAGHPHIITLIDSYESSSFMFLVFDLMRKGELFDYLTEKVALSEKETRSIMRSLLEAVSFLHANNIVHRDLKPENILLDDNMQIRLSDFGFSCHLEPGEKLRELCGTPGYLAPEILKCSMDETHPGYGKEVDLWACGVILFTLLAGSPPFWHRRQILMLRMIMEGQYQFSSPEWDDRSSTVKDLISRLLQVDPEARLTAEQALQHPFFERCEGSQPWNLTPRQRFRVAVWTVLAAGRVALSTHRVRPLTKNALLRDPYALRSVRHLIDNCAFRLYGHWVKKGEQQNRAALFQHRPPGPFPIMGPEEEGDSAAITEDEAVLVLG

[6] = molecular target: Protein kinase C beta type (Homo sapiens, UniProt P05771)
[7] = molecular target: Ribosomal protein S6 kinase alpha-6 (Homo sapiens, UniProt Q9UK32)
[8] = molecular target: T4, Succinate--CoA ligase [ADP-forming] subunit beta, mitochondrial (Homo sapiens, UniProt Q9P2R7)
T4 sequence (Q9P2R7 whole entry): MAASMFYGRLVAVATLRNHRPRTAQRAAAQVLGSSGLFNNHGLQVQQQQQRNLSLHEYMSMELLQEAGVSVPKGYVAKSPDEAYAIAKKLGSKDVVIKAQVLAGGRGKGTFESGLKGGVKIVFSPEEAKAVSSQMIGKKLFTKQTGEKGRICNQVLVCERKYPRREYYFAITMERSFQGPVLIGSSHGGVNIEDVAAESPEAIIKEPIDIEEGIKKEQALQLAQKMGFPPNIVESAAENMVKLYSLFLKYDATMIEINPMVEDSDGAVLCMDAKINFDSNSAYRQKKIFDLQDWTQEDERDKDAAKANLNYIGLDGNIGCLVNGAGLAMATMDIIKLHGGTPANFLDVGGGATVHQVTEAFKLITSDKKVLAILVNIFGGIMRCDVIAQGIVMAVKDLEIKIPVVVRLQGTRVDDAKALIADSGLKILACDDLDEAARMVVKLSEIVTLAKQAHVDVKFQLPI

[9] = molecular target: T5, Uncharacterized protein FLJ45252 (Homo sapiens, UniProt Q6ZSR9); conditions: read-out: Kd apparent; k-562, colo 205, sk-n-be(2) and mv-4-11
T5 sequence (Q6ZSR9 whole entry): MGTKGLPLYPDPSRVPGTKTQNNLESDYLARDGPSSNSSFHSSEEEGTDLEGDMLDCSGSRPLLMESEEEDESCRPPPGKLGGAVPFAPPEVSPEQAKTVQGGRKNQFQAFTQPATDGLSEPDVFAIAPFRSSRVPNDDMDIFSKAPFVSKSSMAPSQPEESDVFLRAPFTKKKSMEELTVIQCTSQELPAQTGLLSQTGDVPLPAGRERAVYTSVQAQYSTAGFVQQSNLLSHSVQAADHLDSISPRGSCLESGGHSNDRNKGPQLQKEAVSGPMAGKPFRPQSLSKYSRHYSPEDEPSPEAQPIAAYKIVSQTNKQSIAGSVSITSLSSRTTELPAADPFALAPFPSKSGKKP

Measured: Kd

Chain of Ribosomal protein S6 kinase alpha-6 (Q9UK32 whole entry): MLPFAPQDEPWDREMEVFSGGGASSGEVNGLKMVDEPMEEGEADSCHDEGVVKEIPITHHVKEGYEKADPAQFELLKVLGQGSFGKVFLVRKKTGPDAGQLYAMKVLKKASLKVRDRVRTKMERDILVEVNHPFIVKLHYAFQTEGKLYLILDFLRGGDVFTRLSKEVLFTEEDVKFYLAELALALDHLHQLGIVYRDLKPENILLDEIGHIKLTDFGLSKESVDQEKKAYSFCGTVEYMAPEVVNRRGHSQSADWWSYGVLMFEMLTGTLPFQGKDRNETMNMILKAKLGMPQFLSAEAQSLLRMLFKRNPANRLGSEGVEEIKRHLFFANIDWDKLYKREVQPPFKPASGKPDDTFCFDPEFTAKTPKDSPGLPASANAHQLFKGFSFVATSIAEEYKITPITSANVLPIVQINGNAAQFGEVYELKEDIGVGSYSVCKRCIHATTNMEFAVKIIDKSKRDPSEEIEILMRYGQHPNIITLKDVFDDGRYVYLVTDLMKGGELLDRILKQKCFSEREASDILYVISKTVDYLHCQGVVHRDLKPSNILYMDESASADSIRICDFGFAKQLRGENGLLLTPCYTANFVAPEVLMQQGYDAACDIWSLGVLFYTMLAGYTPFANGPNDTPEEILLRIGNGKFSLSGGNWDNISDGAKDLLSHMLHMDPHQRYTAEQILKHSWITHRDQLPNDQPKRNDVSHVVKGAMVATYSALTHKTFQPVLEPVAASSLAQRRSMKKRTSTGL
Chain of RAC-gamma serine/threonine-protein kinase (Q9Y243 whole entry): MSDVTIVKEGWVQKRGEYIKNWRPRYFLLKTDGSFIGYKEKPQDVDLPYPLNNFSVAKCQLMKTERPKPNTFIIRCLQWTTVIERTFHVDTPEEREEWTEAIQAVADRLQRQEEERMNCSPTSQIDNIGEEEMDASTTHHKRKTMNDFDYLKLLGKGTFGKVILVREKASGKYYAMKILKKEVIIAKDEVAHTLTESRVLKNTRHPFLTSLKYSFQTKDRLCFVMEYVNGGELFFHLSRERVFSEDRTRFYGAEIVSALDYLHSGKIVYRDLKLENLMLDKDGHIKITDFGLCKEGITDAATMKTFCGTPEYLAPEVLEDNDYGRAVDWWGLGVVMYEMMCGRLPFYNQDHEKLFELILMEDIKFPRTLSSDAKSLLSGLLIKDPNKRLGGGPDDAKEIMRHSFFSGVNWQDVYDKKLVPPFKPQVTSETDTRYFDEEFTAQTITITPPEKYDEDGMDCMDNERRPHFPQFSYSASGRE
Chain of Protein kinase C beta type (P05771 whole entry): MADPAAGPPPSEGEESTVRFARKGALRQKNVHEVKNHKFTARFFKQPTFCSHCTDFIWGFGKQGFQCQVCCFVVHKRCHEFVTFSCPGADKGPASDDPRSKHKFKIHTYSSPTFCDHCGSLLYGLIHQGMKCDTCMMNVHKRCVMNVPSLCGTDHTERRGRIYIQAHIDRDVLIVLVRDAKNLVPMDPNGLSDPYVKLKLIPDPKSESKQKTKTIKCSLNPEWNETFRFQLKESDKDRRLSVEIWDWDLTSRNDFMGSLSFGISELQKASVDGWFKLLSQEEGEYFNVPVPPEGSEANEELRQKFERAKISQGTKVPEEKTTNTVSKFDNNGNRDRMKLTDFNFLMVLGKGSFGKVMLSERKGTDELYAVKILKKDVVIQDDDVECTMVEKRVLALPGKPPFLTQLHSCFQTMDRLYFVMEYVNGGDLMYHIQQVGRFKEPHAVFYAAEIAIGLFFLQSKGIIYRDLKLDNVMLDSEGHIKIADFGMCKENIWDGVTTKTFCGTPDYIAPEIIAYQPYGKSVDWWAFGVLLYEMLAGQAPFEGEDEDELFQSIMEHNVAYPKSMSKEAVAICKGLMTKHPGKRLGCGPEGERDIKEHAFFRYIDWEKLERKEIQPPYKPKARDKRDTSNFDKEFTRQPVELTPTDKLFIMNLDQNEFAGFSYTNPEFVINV

COc1cc2nccc(Oc3ccc(NC(=O)NC4CC4)c(Cl)c3)c2cc1C(N)=O [LENVATINIB]
inactive: [1] > 30 µM | [2] > 30 µM | [3] > 30 µM | [4] > 30 µM | [5] > 30 µM | [6] > 30 µM | [7] > 30 µM | [8] > 30 µM | [9] > 30 µM

CCn1c(=O)c(-c2cc[nH]n2)cc2c(C)nc(N)nc21 [VOXTALISIB]
inactive: [1] > 30 µM | [2] > 30 µM | [3] > 30 µM | [4] > 30 µM | [5] > 30 µM | [6] > 30 µM | [7] > 30 µM | [8] > 30 µM | [9] > 30 µM

Cn1cc(-c2ccc(F)c(C(F)(F)F)c2)nc1C1CCN(c2ncnc3[nH]ncc23)CC1 [LY-2584702]
inactive: [1] > 30 µM | [2] > 30 µM | [3] > 30 µM | [4] > 30 µM | [5] > 30 µM | [6] > 30 µM | [7] > 30 µM | [8] > 30 µM | [9] > 30 µM

CNC(=O)c1ccc(C)c(-n2c(C)cc(OCc3ccc(F)cc3F)c(Br)c2=O)c1 [PH-797804]
inactive: [1] > 30 µM | [2] > 30 µM | [3] > 30 µM | [4] > 30 µM | [5] > 30 µM | [6] > 30 µM | [7] > 30 µM | [8] > 30 µM | [9] > 30 µM

COC(=O)N[C@@H](C)CNc1nccc(-c2cn(C(C)C)nc2-c2cc(Cl)cc(NS(C)(=O)=O)c2F)n1 [ENCORAFENIB]
inactive: [1] > 30 µM | [2] > 30 µM | [3] > 30 µM | [4] > 30 µM | [5] > 30 µM | [6] > 30 µM | [7] > 30 µM | [8] > 30 µM | [9] > 30 µM

Cc1c(F)cc(C(=O)NC2CC2)cc1-c1ccc(C(=O)NCC(C)(C)C)cn1 [LOSMAPIMOD]
inactive: [1] > 30 µM | [2] > 30 µM | [3] > 30 µM | [4] > 30 µM | [5] > 30 µM | [6] > 30 µM | [7] > 30 µM | [8] > 30 µM | [9] > 30 µM

Cc1cc(-c2cc(O)ccc2Cl)cc2nnc(Nc3ccc(OCCN4CCCC4)cc3)nc12
inactive: [1] > 30 µM | [2] > 30 µM | [3] > 30 µM | [4] > 30 µM | [5] > 30 µM | [6] > 30 µM | [7] > 30 µM | [8] > 30 µM | [9] > 30 µM

O=c1sn(-c2cccc3ccccc23)c(=O)n1Cc1ccccc1 [TIDEGLUSIB]
inactive: [1] > 30 µM | [2] > 30 µM | [3] > 30 µM | [4] > 30 µM | [5] > 30 µM | [6] > 30 µM | [7] > 30 µM | [8] > 30 µM | [9] > 30 µM

CO[C@H]1C[C@@H]2CC[C@@H](C)[C@@](O)(O2)C(=O)C(=O)N2CCCC[C@H]2C(=O)O[C@H]([C@H](C)C[C@@H]2CC[C@@H](OCCO)[C@H](OC)C2)CC(=O)[C@H](C)/C=C(\C)[C@@H](O)[C@@H](OC)C(=O)[C@H](C)C[C@H](C)/C=C/C=C/C=C/1C [EVEROLIMUS]
inactive: [1] > 30 µM | [2] > 30 µM | [3] > 30 µM | [4] > 30 µM | [5] > 30 µM | [6] > 30 µM | [7] > 30 µM | [8] > 30 µM | [9] > 30 µM

CC(C)Nc1cc(-c2c[nH]c(C(=O)N[C@H](CO)c3cccc(Cl)c3)c2)c(Cl)cn1 [ULIXERTINIB]
inactive: [1] > 30 µM | [2] > 30 µM | [3] > 30 µM | [4] > 30 µM | [5] > 30 µM | [6] > 30 µM | [7] > 30 µM | [8] > 30 µM | [9] > 30 µM
